This passage reports MIC results from patent US9540399B2, “Quinolone derivatives” (priority 2013, dated 2017).

What all share (assay): Bacterial growth minimal inhibitory concentration, microdilution
Common to all, as to format: cell-based

For assay [1], the system named is Acinetobacter baumanii T6474. The note with it: Acinetobacter baumannii, multiply-resistant, quinolone-resistant strain, cation-adjusted Mueller Hinton Broth. The method, then:
(§1) Minimal Inhibitory Concentrations (MICs; mg/l) were determined in cation-adjusted Mueller Hinton Broth by a microdilution method following the description given in “Methods for Dilution Antimicrobial Susceptibility Tests for Bacteria that Grow Aerobically”, Approved standard, 7th ed., Clinical and Laboratory Standards Institute (CLSI) Document M7-A7, Wayne, Pa., USA, 2006.
(§2) All Example compounds were tested against several Gram positive and especially Gram negative bacteria. […] Staphylococcus aureus A798, Klebsiella pneumoniae A651 and Acinetobacter baumanii T6474 are multiply-resistant strains (in particular quinolone-resistant), while Moraxella catarrhalis A894 and E. coli ATCC 25922 are quinolone-sensitive strains.

The test system of another assay is E. coli ATCC 25922. The note with it: Escherichia coli, ATCC25922; quinolone-sensitive strain; cation-adjusted Mueller Hinton Broth. The method, then:
as §1, §2

Assay [2] deals with Klebsiella pneumoniae A651. The conditions noted are these: multiply-resistant, quinolone-resistant strain, cation-adjusted Mueller Hinton Broth, read-out: MIC for K. pneumoniae A651. On the procedure:
as §1, §2

Assay [3] concerns Moraxella catarrhalis A894. The note with it: quinolone-sensitive strain, cation-adjusted Mueller Hinton Broth. The method, then: as §1, §2
Assay [4] relates to Staphylococcus aureus A798. The conditions noted are these: multiply-resistant, quinolone-resistant strain, cation-adjusted Mueller Hinton Broth, read-out: MIC for S. aureus A798. On the procedure: as §1, §2

The structures appear in SMILES notation. In brackets after ≈: the same amount, converted by molar mass.

With `Cn1cc(C(=O)O)c(=O)c2cc(F)c(N3CCC(CCNCc4ccc5c(n4)NC(=O)CS5)CC3)nc21` [Example 17, 6-Fluoro-1-methyl-4-oxo-7-(4-{2-[(3-oxo-3,4-dihydro-2H-pyrido[3,2-b][1,4]thiazin-6-ylmethyl)-amino]-ethyl}-piperidin-1-yl)-1,4-dihydro-[1,8]naphthyridine-3-carboxylic acid], the MIC in assay [1] amounted to 0.125 µg/mL (≈ 0.237 µM); against E. coli ATCC 25922 it was 0.125 µg/mL (≈ 0.237 µM); in assay [2], 0.5 µg/mL (≈ 0.949 µM); in assay [3], 0.031 µg/mL (≈ 0.0589 µM); in assay [4], 0.5 µg/mL (≈ 0.949 µM).
